# The source made the active and inactive calls. No cut-off for these calls is given here.
# Tests used:
# Fusarium oxysporum [1] = test: Antifungal activity against Fusarium oxysporum after 72 hr by 96-well microbioassay; type: functional
# Fusarium oxysporum [2] = test: Inhibition of mycelial growth of Fusarium oxysporum after […]; type: functional, organism-based
# Botrytis cinerea [3] = test: Inhibition of conidial germination of Botryotinia fuckeliana after 8 days by microscopy; type: functional, organism-based; settings: 192 h
# Botrytis cinerea [4] = test: Inhibition of mycelial growth of Botryotinia fuckeliana after […]; type: functional, organism-based
# Fusarium oxysporum [5] = test: Inhibition of conidial germination of Fusarium oxysporum at 10 ug/ml after 48 hr by microscopy; type: functional
# Botrytis cinerea [6] = test: Antifungal activity against Botryotinia fuckeliana after 72 hr by 96-well microbioassay; type: functional
# Fusarium oxysporum [7] = test: Inhibition of conidial germination of Fusarium oxysporum at 100 ug/ml after 8 days by microscopy; type: functional, organism-based
# Botrytis cinerea [8] = test: Inhibition of conidial germination of Botryotinia fuckeliana at 50 ug/ml after 8 days by microscopy; type: functional, organism-based
# Botrytis cinerea [9] = test: Antifungal activity against Botryotinia fuckeliana assessed as growth inhibition at 1 mg/ml after 72 hr by paper disk diffusion method; type: functional; settings: read-out: DIZ
# Fusarium oxysporum [10] = test: Antifungal activity against Fusarium oxysporum assessed as growth inhibition at 1 mg/ml after 72 hr by paper disk diffusion method; type: functional; settings: read-out: DIZ
# Botrytis cinerea [11] = test: Inhibition of conidial germination of Botryotinia fuckeliana at 10 ug/ml after 48 hr by microscopy; type: functional
# Fusarium oxysporum [12] = test: Inhibition of conidial germination of Fusarium oxysporum after 8 days by microscopy; type: functional, organism-based; settings: 192 h
SMILES,MIC (Fusarium oxysporum [1]) [µg/mL],IC50 (Fusarium oxysporum [2]) [µg/mL],IC50 (Botrytis cinerea [3]) [µg/mL],IC50 (Botrytis cinerea [4]) [µg/mL],inhibition at 10 µg/mL (Fusarium oxysporum [5]) [%],MIC (Botrytis cinerea [6]) [µg/mL],inhibition (Fusarium oxysporum [7]),inhibition (Botrytis cinerea [8]),zone of inhibition at 1000 µg/mL (Botrytis cinerea [9]) [mm],zone of inhibition at 1000 µg/mL (Fusarium oxysporum [10]) [mm],inhibition at 10 µg/mL (Botrytis cinerea [11]) [%],IC50 (Fusarium oxysporum [12]) [µg/mL]
CCNC(c1ccccc1-c1cn(-c2ccccc2)nc1-c1ccc(C)cc1)C(C)C (stereo unspecified),36,17.8,7.3,6.8,20,25,Active,Active,26,23.6,85,40.8
C[C@@H]1[C@H](O)[C@@H](C)/C=C/C=C/C=C/C=C/C=C/C=C/C=C/[C@H](O[C@@H]2O[C@H](C)[C@@H](O)[C@H](N)[C@@H]2O)C[C@@H]2O[C@](O)(C[C@@H](O)C[C@@H](O)[C@H](O)CC[C@@H](O)C[C@@H](O)CC(=O)O[C@H]1C)C[C@H](O)[C@H]2C(=O)O [AMPHOTERICIN B],15,,,,,12,,,30,26,,

# From ChEMBL document CHEMBL3045207, “1-Phenyl-3-toluyl-4-[ortho-1'-(N-ethyl-2'-methylpropylamine)]phenylpyrazole, synthesis and evaluation of the in vitro antifungal activity against Botrytis cinerea and Fusarium oxysporum” (Farmaco, 2004)
